Entries after “also recorded” stand apart in the source; their conditions may differ. Where two headings read alike, the source gives them in different places.
Legend:
[1] = system: aortas and femoral arteries of cholesterol-fed rabbits; assay: Atherosclerotic lesions in rabbits on 2% cholesterol diet (Sudan III, intima/media morphometry, immunohistochemistry); format: in vivo, New Zealand White rabbits; details: for Extent of sudanophilic areas / atherosclerosis in the aorta: 0.1% propylthiouracil in drinking water, 12 weeks; for Alpha-smooth muscle actin-positive cells (VSMCs) in atheromas / VSMC/macrophage ratio in atherosclerotic lesions: CHO+PTU versus CHO alone
Protocol: At the end of 12 weeks of study, the rabbits were sacrificed. The aortas (from the ascending aorta to the iliac bifurcation) and femoral arteries were removed, rinsed with phosphate-buffered saline (PBS) and stained with Sudan III, or fixed with 4% paraformaldehyde and paraffin-embedded for hematoxylin-eosin staining or immunohistochemical analysis.
For morphometric studies, up to ten cross sections ([…] and 2 millimeters apart from each other) were prepared from each paraffin-embedded segment of the aorta and femoral arteries. The specimens were stained with hematoxylin and eosin. For each cross section of an arterial specimen, the intimal and medial areas were measured.
For immunohistochemical studies, the arterial sections were deparaffinized, rehydrated and blocked in PBS containing 1% bovine serum albumin and 1% goat serum at room temperature for 30 minutes. The sections were then incubated with mouse monoclonal antibodies against smooth muscle cell alpha-actin (clone 1A4, catalogue number M0851, DAKO Corp., Carpenteria, Calif.) and mouse monoclonal antibodies against rabbit macrophages (clone RAM 11, catalogue number M0633, DAKO Corp., Carpenteria, Calif.) at 4° C. overnight. Subsequently, immunohistochemistry was performed using a commercially available peroxidase-labelled streptavidin-biotin kit (DAKO LSAB peroxidase, catalogue number K0675, DAKO, Carpenteria, Calif.) and 3,3′-diaminobenzidine tetrahydrochloride (DAKO liquid DAB+ substrate-chromagen system, catalogue number K3468, DAKO, Carpenteria, Calif.) according to the procedures provide by manufacturer.

[2] = system: rat vascular smooth muscle cells; assay: [methyl-3H]thymidine incorporation into VSMCs; format: cell-based
Protocol: (§1) Rat vascular smooth muscle cells (VSMCs) (passages 5-10) were prepared from Sprague-Dawley rats and cultured in Dulbecco's modified Eagle's medium (DMEM) supplemented with 10% fetal bovine serum (FBS) as previously described (Kirschenlohr et al, in “Human Cell Culture Protocols”, New Jersey, Humana Press Inc, 1996, pp. 318-335). Human endothelial cells from umbilical veins were prepared as described (Morgan, in “Human Cell Culture Protocols”, New Jersey, Humana Press Inc, 1996, pp. 101-152)
(§2) Rat vascular smooth muscle cells and human endothelial cells were plated at a density of 10,000 cells per square centimeter in 24-well plates. After 24 hours, cells at 70-80% confluency were treated with propylthiouracil dissolved in 100% dimethylsulfoxide (DMSO) at final concentrations of from 0.05 millimolar to 15 millimolar, or with methimazole (Sigma, St. Louis, Mo.) dissolved in water at the concentrations of from 0.01 millimolar to 1 millimolar for 24-72 hours. Cell numbers were visually counted using a hemocytometer. For the thymidine incorporation study, cells were deprived of serum for 36 hours and labeled with [methyl-^3H]thymidine at […] per milliliter for 12-24 hours after synchronization. Thymidine incorporation was then measured (Newby and George, 1996, Curr. Opin. Cardiol., 11:547). Effects of propylthiouracil and methimazole on the number of vascular smooth muscle cells and human endothelial cells and thymidine incorporation by vascular smooth muscle cells were each expressed as a percentage of the number and thymidine incorporation of control cells maintained in medium containing 0.1% DMSO as vehicle.

[3] = system: human endothelial cells from umbilical veins; assay: cells
Protocol: as §1, §2

[4] = system: type I and type III collagen expression in rat vascular smooth muscle cells; details: 5 millimolar
Protocol: The expression of smooth muscle cell collagen was determined by Northern blot analysis at the RNA level and Western blot analysis on the protein level. Total RNA (10 micrograms) from vascular smooth muscle cells grown in the media containing 0 (Control), 0.5 millimolar, 2.5 millimolar, or 5 millimolar propylthiouracil (PTU) for 24 hours was electrophoresed on a 1% agarose gel. The levels of pro-α1(I) collagen mRNA were measured as radioactivities, normalized relative to the density of 18S and 28S rRNA (FIG. 12, Panel A).
The effects of lower physiological concentrations of propylthiouracil on the expression of type I and type III collagen genes was also studied at the RNA level. Northern blot analysis was carried out on total RNA from rat vascular smooth muscle cells grown for 24 to 72 hours (1 to 3 days) in media containing 0 (Control, C), 0.38 millimolar, 0.5 millimolar, or 0.76 millimolar propylthiouracil. Type I collagen (FIG. 13, Panel A) and type III collagen (FIG. 13, Panel B) mRNA radioactivity levels were normalized relative to 18S and 28S rRNA (FIG. 13, Panel C).
Type I collagen (FIG. 14, Panel A) and type III collagen (FIG. 14, Panel B) protein levels were normalized relative to the protein levels of tubulin. […]

[5] = system: rat vascular smooth muscle cells
[6] = system: rat vascular smooth muscle cells; details: for Pyknosis or karyorhexis (features of apoptosis), propidium iodide-stained cells: 5 millimolar, 24 hours
[7] = system: rat vascular smooth muscle cells; details: summary table, propylthiouracil; non-contractile to contractile phenotype in vitro
[8] = summary table; cited from earlier work
Throughout, for Anti-inflammation: key: '+' represents the ability; a '−' represents the inability of conversion from a non-contracile phenotype to a contractile phenotype in an in vitro condition; A '↓' represents decrease; a '?' represents no data is available.

CCCc1cc(=O)[nH]c(=S)[nH]1 [Propylthiouracil, 6-n-propyl-2-thiouracil]
Extent of sudanophilic areas / atherosclerosis in the aorta ([1]; 2% cholesterol diet): markedly less; also recorded: significantly decreased | Extent of sudanophilic areas / atherosclerosis in the aorta ([1]; 2% cholesterol diet, listed as PTU): markedly less | Alpha-smooth muscle actin-positive cells (VSMCs) in atheromas [1]: significantly fewer | VSMC/macrophage ratio in atherosclerotic lesions [1]: reduce | Alpha-smooth muscle actin-positive cells (VSMCs) in atheromas ([1]; listed as PTU): markedly fewer | VSMC/macrophage ratio in atherosclerotic lesions ([1]; listed as PTU): decreased | Intima/media area ratio ([1]; ascending aorta, aortic arch and femoral arteries, 2% cholesterol diet): deceased significantly | Visible atherosclerotic lesion in aortas and arteries ([1]; normal chow, Groups 2 and 3, data not shown): no visible atherosclerotic lesion | TUNEL-positive cells in aortas of rabbits ([1]; propylthiouracil and cholesterol/propylthiouracil treatment groups): absent | Thymidine incorporation into VSMCs ([2]; 0.05 millimolar): 99 % of control | Thymidine incorporation into VSMCs ([2]; 0.5 millimolar): 93 % of control | Thymidine incorporation into VSMCs ([2]; 2.5 millimolar): 75 % of control | Thymidine incorporation into VSMCs ([2]; 5 millimolar): 38 % of control | Inhibition of thymidine incorporation into VSMCs ([2]; concentration-dependent): significantly inhibited | Concentration at which significant inhibition of growth of vascular endothelial cells was observed ([3]; 24 hours): ≥ 10 millimolar | Growth of vascular endothelial cells ([3]; 24 hours, concentrations of up to 7.5 millimolar): did not significantly inhibit | Difference in inhibitory effect, vascular endothelial cells less than vascular smooth muscle cells ([3]; FIG. 7): 20-30% | IC50 ([3]; Homo sapiens, Endothelial cell, 24 h, read-out: IC50 for endothelial cells (proliferation)): 12 mM | Endothelial cellular function ([3]; summary table, propylthiouracil): + | Staining density for type I collagen (immunocytochemistry) [4]: decrease | Staining density for type III collagen (immunocytochemistry) [4]: decrease | Cytotoxic effect on VSMCs by trypan blue exclusion test ([5]; 24 hours): no cytotoxic effect | Number of cells that excluded trypan blue ([5]; 24 hours treatment, n=5): 94.4±0.4% | Pyknosis or karyorhexis (features of apoptosis), propidium iodide-stained cells [6]: did not cause any pyknosis or karyorhexis | Pyknosis or karyorhexis (features of apoptosis), propidium iodide-stained cells ([6]; listed as propylthiouracil): did not cause pyknosis or karyorhexis | TUNEL-positive cells in VSMCs ([6]; propylthiouracil-treated VSMCs): absent | Phenotype change [7]: + | Anti-inflammation [8]: +

Source: patent US6939863B2, “Prevention of atherosclerosis and restenosis” (priority 2002, dated 2005)
